Assay results as given in US20130123368A1, “METHODS OF REDUCING 15-F2T-ISOP LEVELS IN MAMMALS” (BIOACTIVES, INC., priority 2007, published 2013).

Tests used:
Caco-2 cell monolayers [1] = test: Certification of Caco-2 Transwell plates with reference compounds; format: in vitro ADME; details: plate certification TW12, passage 63, age 22 days
Procedure: To test the permeability of xanthohumol across Caco-2 cell monolayers, Caco-2 cell monolayers were grown to confluence on collagen-coated, microporous, polycarbonate membranes in 12-well Costar Transwell® plates. Details of the plates and their certification are shown below in Table 3. The test article was also the aqueous xanthohumol formulation, and the dosing concentration was 2 μM in the assay buffer (HBSSg) as in the previous example. Cell monolayers were dosed on the apical side (A-to-B) or basolateral side (B-to-A) and incubated at 37° C. with 5% CO2 in a humidified incubator. Samples were taken from the donor chamber at 120 minutes, and samples from the receiver chamber were collected at 60 and 120 minutes. Each determination was performed in duplicate. Lucifer yellow permeability was also measured for each monolayer after being subjected to the test article to ensure no damage was inflicted to the cell monolayers during the permeability experiment. All samples were assayed for Xanthohumol by LC/MS/MS using electrospray ionization. The apparent permeability (Papp), and percent recovery were calculated as described above.

Caco-2 cell monolayers [2] = test: Permeability of xanthohumol across Caco-2 cell monolayers; format: in vitro ADME; details: for Percent Recovery: Caco-2, B-to-A, 2 μM in HBSSg, 37° C.
Procedure: Percent Recovery=100×((Vr×Cr^final)+(Vd×Cd^final))/(Vd×C0)
Where: • dCr/dt is the slope of the cumulative concentration in the receiver compartment versus time in μM s^−1. • Vr is the volume of the receiver compartment in cm^3. • Vd is the volume of the donor compartment in cm^3. • A is the area of the cell-free insert (1.13 cm^2 for 12-well Transwell). • Cr^final is the cumulative receiver concentration in μM at the end of the incubation period. • Cd^final is the concentration of the donor in μM at the end of the incubation period. • C0 is the initial concentration of the dosing solution in μM.
Each determination was performed in duplicate.

Row | Papp (Caco-2 cell monolayers [1]) | Lucifer yellow Papp, post-experiment integrity control (Caco-2 cell monolayers [2]; all monolayers after exposure to the test article) | Significant Efflux (Caco-2 cell monolayers [2]; Caco-2) | Percent Recovery (Caco-2 cell monolayers [2]; Average) | Percent Recovery (Caco-2 cell monolayers [2]; Rep. 1) | Compound | Absorption Potential (Caco-2 cell monolayers [2]; Caco-2, classification by Papp(A-to-B))
1 | 0.13 ×10⁻⁶ cm/s | < 0.8 ×10⁻⁶ cm/s |  |  |  | Lucifer Yellow [reference compound] | 
2 |  |  | No | 81 | 81 | COc1cc(O)c(CC=C(C)C)c(O)c1C(=O)/C=C/c1ccc(O)cc1 [Xanthohumol, 2′,4′,4-trihydroxy-6′-methoxy-3′-prenylchalcone] | Medium (1.0 × 10^−6 cm/s > Papp(A-to-B) ≧ 0.5 × 10^−6 cm/s Medium)
